Patent US20250161249A1, “USE OF PHENYLLACTIC ACID IN INHIBITING HELICOBACTER PYLORI INFECTION” (Zhejiang Gongshang University, priority 2022, published 2025)
Converted amounts (≈) assume the structure as drawn. “And” between values parts separate entries of the source, which are not always exact repeats. Identical values can stand only once. “Also recorded” adds a separate entry of the source.

Legend:
[1] = system: H. pylori ZJC03; assay: Bacteriostasis experiment by Kirby-Bauer method (inhibition zone); assay type: cell-based, Helicobacter pylori; conditions: 6 mm filter paper disk, 72 h
Description: Preparation of different concentrations of phenyllactic acid: phenyllactic acid was diluted two-fold to 40 mg/mL, 20 mg/mL, 10 mg/mL, 5 mg/mL, 2.5 mg/mL and 1.25 mg/mL. The solvent used for dilution was ultrapure water.
Preparation of antimicrobial susceptibility disks: filter paper was made into circular disks with a diameter of 6 mm, subjected to autoclaved sterilization for 15 min and dried. Each circular filter paper disk was completely soaked in phenyllactic acid solutions with different concentrations, and ultrapure water was taken as a blank control to obtain antimicrobial susceptibility disks with different concentrations.
Coating and culture: 100 μL of 10^8 CFU/mL of an H. pylori bacterial solution was evenly coated on a CBA medium and dried. Then the antimicrobial susceptibility disks with different concentrations of the phenyllactic acid were pasted on a plate by tweezers, and this operation was repeated 3 times for disks of each concentration. Then the plate was placed in a culture box (containing a microaerophilic gas-generating pack inside) and statically cultured at 37° C. for 72 h. The size of an inhibition zone (mm) was measured and the measurement result was recorded.

[2] = system: H. pylori ZJC03; assay: Antimicrobial susceptibility test of H. pylori ZJC03 (E-test paper); assay type: cell-based, Helicobacter pylori; conditions: clinical strain H. pylori ZJC03, E-test paper
Description: The sensitivity of H. pylori ZJC03 was tested by using an E-text test paper.

[3] = system: H. pylori; assay: Determination of minimum inhibitory concentration (agar dilution method); assay type: cell-based, Helicobacter pylori; conditions: 37° C., 48 h, microaerobic
[4] = system: H. pylori; assay: Effects of sub-inhibitory concentrations on growth curves of H. pylori; assay type: cell-based, Helicobacter pylori
Description: According to the determination of the bacteriostatic ability, the effects of phenyllactic acid on growth curves were analyzed. An H. pylori suspension cultured overnight was inoculated into a sterilized modified Brucella broth medium. The concentration was adjusted such that the initial inoculum size of the bacteria was 1×10^8 CFU/mL. The phenyllactic acid was added at the final concentrations of ⅛ MIC, ¼ MIC, ½ MIC and MIC, and no drug was added to the control group. The mixed solution was placed in a microaerobic environment at 37° C. for 120 h, the OD560 value was determined every other 12 h, and the changes of the growth curves at sub-inhibitory concentrations were observed and recorded.

[5] = molecular target: T1, urease activity of H. pylori ZJC03 (Helicobacter pylori, UniProt P69996); assay: Urease activity of H. pylori, phenol red method; assay type: biochemical; conditions: co-cultured 48 h
T1 construct: A total of 50 μL of the H. pylori culture solution and 50 μL of the phenyllactic acid; endogenous in cells; host or cells: Helicobacter pylori ZJC03 (live culture, 1×10^8 CFU/mL)

[6] = system: H. pylori ZJC03; assay: Ultra microstructure observation (SEM, TEM, negative-stain TEM); assay type: cell-based, Helicobacter pylori; conditions: at the MIC
[7] = system: gastric mucosal injury caused by H. pylori infection; assay: Histopathological observation (H&E) of gastric tissues of H. pylori infected mice; assay type: in vivo, C57BL/6J mice; conditions: phenyllactic acid 0.8 mg/mL, 400 μL gavage daily 4 weeks, antibiotics 400 μL daily 10 days
Description: After one week of acclimation, mice were randomly divided into 4 groups: ZC, ZH, ZP and ZA. The mice in the groups were treated as follows: ZC group (15 mice): every mouse was gavaged once every other day with 400 μL of a modified Brucella broth medium for 2 weeks, followed by daily gavage of 400 μL of ultrapure water every day for 4 weeks. […] The bacterial content of the H. pylori ZJC03 suspension was 10^8 CFU/mL. After the molding, all the mice in each group were sacrificed by cervical dislocation. Gastric mucosa samples were washed with PBS and collected aseptically. The stomach contents were frozen in liquid nitrogen and subsequently stored at −80° C. for testing in Examples 8-10. The gastric mucosa was fixed in a 4% paraformaldehyde (PFA) buffer solution for 24 h at room temperature. After the treatment, the stomach tissue was embedded with an EG 1160 paraffin machine. The paraffin block was placed in an RM 2235 rotary microtome for sectioning (5 μm), and the sections were stained with hematoxylin and eosin (H&E). The stained sections were observed under a light microscope and photographed (NIKON Eclipse Ci, Japan); and the imaging system was: NIKON digital sight DS-FI2, and the photographic magnification was: 400× and 200×.

[8] = system: IFN-γ, IL-6, IL-1β and IL-10 in the stomach tissue; assay: RT-qPCR of inflammatory factors in gastric mucosal tissues of H. pylori infected mice; assay type: in vivo, C57BL/6J mice; conditions: gavage
Description: After one week of acclimation, mice were randomly divided into 4 groups: ZC, ZH, ZP and ZA. The mice in the groups were treated as follows: […] After the molding, all the mice in each group were sacrificed by cervical dislocation. Gastric mucosa samples were washed with PBS and collected aseptically. The stomach contents were frozen in liquid nitrogen and subsequently stored at −80° C. for testing in Examples 8-10. The quantitative analysis of IFN-γ, IL-6, IL-1β and IL-10 in the stomach tissue was performed by RT-qPCR. Total RNA (100-500 ng/μL) was isolated from mouse stomach tissue samples according to the instructions of an RNA extraction kit, followed by reverse transcription of RNA into cDNA using the kit. The levels of each gene were normalized using GAPDH as an internal control. The RT-qPCR assay was performed according to the following thermal cycle program: pre-denaturation at 95° C. for 10 min, 40 cycles of 95° C. for 15 s and 60° C. for 30 s, and the melting curve was from 60° C. to 95° C. with a temperature increase of 0.3° C. every 15 s and the fluorescence signal was collected once, and a 2^−ΔΔCt method was used for calculation.

[9] = system: mouse gastric flora; assay: Gastric microbiota analysis by 16S rRNA gene sequencing in H. pylori infected mice; assay type: in vivo, C57BL/6J mice
Description: After one week of acclimation, mice were randomly divided into 4 groups: ZC, ZH, ZP and ZA. The mice in the groups were treated as follows:
ZP group (45 mice): every mouse was gavaged once every other day with 400 μL of the H. pylori ZJC03 bacterial suspension for 2 weeks, followed by daily gavage of 400 μL of phenyllactic acid (at the concentrations of 0.16 mg/mL, 0.32 mg/mL and 0.8 mg/mL respectively, and 15 mice for each concentration) every day for 4 weeks.
ZA group (15 mice): every mouse was gavaged once every other day with 400 μL of the H. pylori ZJC03 bacterial suspension for 2 weeks, followed by 10 days of gavage of combined antibiotics (at the dose of 400 μL per mouse per day), and after 10 days, each mouse continued to be gavaged with 400 μL of ultrapure water for 18 days.
After the molding, all the mice in each group were sacrificed by cervical dislocation. Gastric mucosa samples were washed with PBS and collected aseptically. The stomach contents were frozen in liquid nitrogen and subsequently stored at −80° C. for testing in Examples 8-10.
DNA samples were extracted from the gastric mucosa by a CTAB method, and the quality of DNA extraction was detected by agarose gel electrophoresis, and at the same time, the DNA was quantified by an ultraviolet spectrophotometer. The hypervariable regions V3-V4 of 16S rRNA of bacteria were amplified by using universal primers (341F and 805R). Paired-end sequencing of 2×250 bp was performed using a NovaSeq 6000 sequencer, and DNA extraction and sequencing were completed in the LC-Bio Technologies Co. Ltd.

[10] = gastric mucosa, ZP = 0.8 mg/mL phenyllactic acid, ZA = antibiotic treatment

T1 sequence (P69996 whole entry): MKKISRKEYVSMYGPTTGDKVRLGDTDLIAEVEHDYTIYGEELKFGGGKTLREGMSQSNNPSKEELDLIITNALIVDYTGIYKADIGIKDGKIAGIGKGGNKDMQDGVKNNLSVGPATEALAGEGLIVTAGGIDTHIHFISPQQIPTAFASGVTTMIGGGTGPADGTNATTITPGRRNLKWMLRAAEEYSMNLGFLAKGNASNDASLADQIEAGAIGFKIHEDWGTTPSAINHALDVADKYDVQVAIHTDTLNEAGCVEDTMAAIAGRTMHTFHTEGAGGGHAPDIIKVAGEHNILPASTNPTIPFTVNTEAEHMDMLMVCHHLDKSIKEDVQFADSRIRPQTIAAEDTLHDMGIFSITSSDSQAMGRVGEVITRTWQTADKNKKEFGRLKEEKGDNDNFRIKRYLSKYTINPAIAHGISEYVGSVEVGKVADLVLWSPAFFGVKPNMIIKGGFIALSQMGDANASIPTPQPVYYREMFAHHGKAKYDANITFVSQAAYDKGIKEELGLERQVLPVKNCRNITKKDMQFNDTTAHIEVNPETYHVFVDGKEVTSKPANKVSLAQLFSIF
T1 sequence (P14916 whole entry, further chain): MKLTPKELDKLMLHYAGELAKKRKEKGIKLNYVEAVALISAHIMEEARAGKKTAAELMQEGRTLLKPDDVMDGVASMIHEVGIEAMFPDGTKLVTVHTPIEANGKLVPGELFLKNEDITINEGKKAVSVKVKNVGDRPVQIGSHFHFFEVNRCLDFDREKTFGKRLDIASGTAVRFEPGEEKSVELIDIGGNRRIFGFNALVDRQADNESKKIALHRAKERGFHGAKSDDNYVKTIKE

## CC(O)C(=O)O (stereo not shown) [lactic acid]
[1]; 10 mg/mL solution
  Inhibition zone diameter: no visible inhibition zone

## Cc1ncc([N+](=O)[O-])n1CCO [Metronidazole]
[2]
  Sensitivity of H. pylori ZJC03 to antibiotics: insensitive

## CC1(C)S[C@@H]2[C@H](NC(=O)[C@H](N)c3ccc(O)cc3)C(=O)N2[C@H]1C(=O)O [Amoxicillin]
[2]
  Sensitivity of H. pylori ZJC03 to antibiotics: 0.016 µg/mL

## O=C(O)C(O)Cc1ccccc1 (stereo not shown) [phenyllactic acid, Phenyllactic acid]
[1]; 1.25 mg/mL solution
  Inhibition zone diameter: no inhibition zone
[1]; 2.5 mg/mL solution
  Inhibition zone diameter: 6.94 ± 0.95 mm
[1]; 5 mg/mL solution
  Inhibition zone diameter: 7.51 ± 0.74 mm
[1]; 10 mg/mL solution
  Inhibition zone diameter: 9.98±0.97 mm
[1]; 20 mg/mL solution
  Inhibition zone diameter: 12.41 ± 0.14 mm
[1]; 40 mg/mL solution
  Inhibition zone diameter: 15.35 ± 0.94 mm
[3]
  minimum inhibitory concentration (MIC): 2500 µg/mL (≈ 15 mM)
[4]; MIC, 48 h, 72 h, 96 h and 120 h
  growth of H. pylori (growth curve, OD560): completely inhibited; also recorded: significantly inhibited
[4]; ¼ MIC
  growth of H. pylori (growth curve, OD560): a certain bactericidal effect
[4]; ½ MIC, 48 h, 72 h, 96 h and 120 h
  growth of H. pylori (growth curve, OD560): significantly inhibited
[4]; ⅛ MIC
  growth of H. pylori (growth curve, OD560): basically not inhibited
[5]; at 0.25 MIC
  inhibitory effect on urease activity: no significant inhibitory effect
[5]; at 0.5 MIC
  inhibitory effect on urease activity: no significant inhibitory effect
[5]; at 2 MIC
  inhibition rate of urease activity: 80.13%±1.18%
[5]; at the MIC
  inhibition rate of urease activity: 43.01%+2.11% and 43.01%±2.11%
[6]; 5-10 min
  bacterial cell morphology, negative-stain transmission electron microscopy: The flagella of the bacterial cells fell off
[6]; 4 h
  bacterial cell internal structure, transmission electron microscopy: the cell walls were separated from the cell membranes
  bacterial cell morphology, scanning electron microscopy: most bacterial cells appeared to be disintegrated
[7]
  H&E histopathology of gastric mucosa: the tissue structure was substantially normal; also recorded: inflammatory cells basically disappeared
[8]
  IFN-γ gene expression in gastric mucosa vs ZH modeling group: significantly decreased; also recorded: significantly reduce
  IL-1β gene expression in gastric mucosa vs ZH modeling group: significantly decreased; also recorded: significantly reduce
  IL-6 gene expression in gastric mucosa vs ZH modeling group: significantly decreased; also recorded: significantly reduce
  IL-10 relative expression level in gastric mucosa vs ZH modeling group: increased without a statistical difference
[9]; ZP group compared with ZA group
  effect on the diversity of the gastric flora: no significant effect
[9]; after 4 weeks of treatment
  decrease of relative abundance of Helicobacter pylori compared with ZH group: 9.46%
  gastric flora with significant increases at the genus level (LEfSe, LDA>3): Prevotella, Lactobacillus, Faecalibaculum, Olsenella, Aerococcus
[9]; [10]
  Chao1 (alpha diversity): 464.56
  Observed species (alpha diversity): 453.6
  Shannon (alpha diversity): 6.139
  Simpson (alpha diversity): 0.9287
[9]; genus level
  Helicobacter in the stomach: significantly inhibit
  content / growth of Lactobacillus in the stomach: improved; also recorded: significantly promote the growth
  relative abundance of Lactobacillus in gastric microbiota: 22.39%
[9]; phylum level
  proportion of Proteobacteria in gastric flora vs ZH group: significantly decreased
  ratio of Bacteroides to Firmicutes in gastric flora: increased

## CN(C)[C@@H]1C(O)=C(C(N)=O)C(=O)[C@@]2(O)C(O)=C3C(=O)c4c(O)cccc4[C@@](C)(O)[C@H]3C[C@@H]12 [Tetracycline]
[2]
  Sensitivity of H. pylori ZJC03 to antibiotics: 0.023 µg/mL

## CC[C@H]1OC(=O)[C@H](C)[C@@H](O[C@H]2C[C@@](C)(OC)[C@@H](O)[C@H](C)O2)[C@H](C)[C@@H](O[C@@H]2O[C@H](C)C[C@H](N(C)C)[C@H]2O)[C@](C)(OC)C[C@@H](C)C(=O)[C@H](C)[C@@H](O)[C@]1(C)O [Clarithromycin]
[2]
  Sensitivity of H. pylori ZJC03 to antibiotics: 0.8 µg/mL
